Consider nine molecules from ChEMBL document CHEMBL1221322, “Design, synthesis, and biological evaluation of new monoamine reuptake inhibitors with potential therapeutic utility in depression and pain” (Bioorg Med Chem Lett, 2010).

Usually bioavailability stands for dose-corrected exposure relative to a reference, in per cent. A high value points to good availability. By logD is commonly meant the decadic logarithm of the distribution of all forms, ionised or not, between an organic phase and buffer at a given pH. The low end stands for a more hydrophilic compound, the high end for a more lipophilic compound. As a reminder, the Papp B→A is how fast a substance crosses the layer from the basolateral side. Broadly, the Papp A→B is how fast a substance crosses the layer from the apical side. A lower Papp A→B goes with poor permeation.

One series can be described thus: Oral bioavailability in rat. In kind it is ADME, organism-based. The settings on record: in vivo.
For the molecule `CC(C)(C)CCC1(C(=O)c2cc(F)c3[nH]ccc3c2)CCNC1` (single isomer, unassigned; (+)), the bioavailability was 5%.
`CC(C)(C)CCC1(C(=O)c2ccc(Cl)c(Cl)c2)CCNC1` (single isomer, unassigned; (+)) came in with a bioavailability of 57%.
Still for that read-out and setting: under `CNCC[C@H](Oc1cccc2ccccc12)c1cccs1` [DULOXETINE] stands 22%.

The nature of a further series: Volume of distribution at steady state in rat. The series is classed as ADME, organism-based. The settings on record: in vivo, read-out: Vdss.
For the molecule `CC(C)(C)CCC1(C(=O)c2cc(F)c3[nH]ccc3c2)CCNC1` (single isomer, unassigned; (+)), the Vd came out at 14 L/kg.
Turning to `CC(C)(C)CCC1(C(=O)c2ccc(Cl)c(Cl)c2)CCNC1` (single isomer, unassigned; (+)), the Vd is 14.3 L/kg.
The same measure, in the same setting: under `CNCC[C@H](Oc1cccc2ccccc12)c1cccs1` [DULOXETINE] stands 20.9 L/kg.

A short description of another series: physchem. Particulars: octanol/water.
Consider `CCCC1(C(=O)c2ccc3[nH]ncc3c2)CCCN1` (stereo not drawn), for which the logD amounted to 1.
`CC(C)CC1(C(=O)c2ccc3[nH]ncc3c2)CCCN1` (stereo not drawn) had a pH-dependent lipophilicity (logD) of 1.
For `CC(C)(C)CCC1(C(=O)c2ccc3[nH]ncc3c2)CCCN1` (stereo not drawn), the logD was found to be 2.03.
The same measure, in the same setting: under `CCCC1(C(=O)c2ccc3[nH]ccc3c2)CCCN1` (stereo not drawn) stands 1.45.
`CC(C)OCC1(C(=O)c2ccc(N)c(Cl)c2)CCCN1` (single isomer, unassigned; (+)) had a logD of 0.84.

A short description of another series: in vitro. The settings on record: human, Caco-2.
As to `CCCC1(C(=O)c2ccc3[nH]ncc3c2)CCCN1` (stereo not drawn), the Papp B→A came to 16 ×10⁻⁶ cm/s.
Same read-out and setting: under `CC(C)CC1(C(=O)c2ccc3[nH]ncc3c2)CCCN1` (stereo not drawn) stands 20 ×10⁻⁶ cm/s; under `CC(C)(C)CCC1(C(=O)c2ccc3[nH]ncc3c2)CCCN1` (stereo not drawn), 12 ×10⁻⁶ cm/s.
`CCCC1(C(=O)c2ccc3[nH]ccc3c2)CCCN1` (stereo not drawn) showed a Papp B→A of 10 ×10⁻⁶ cm/s.
As to `O=C(c1ccc2[nH]ccc2c1)C1(Cc2ccccc2)CCNC1` (stereo not drawn), the Papp B→A is 19 ×10⁻⁶ cm/s.
On the same count and under the same terms, under `CC(C)OCC1(C(=O)c2ccc(N)c(Cl)c2)CCCN1` (single isomer, unassigned; (+)) stands 18 ×10⁻⁶ cm/s.

Another series in a line: in vitro. Particulars: human, Caco-2. The source holds these as a separate data set.
As for `CCCC1(C(=O)c2ccc3[nH]ncc3c2)CCCN1` (stereo not drawn), the Papp A→B came out at 29 ×10⁻⁶ cm/s.
Molecule `CC(C)CC1(C(=O)c2ccc3[nH]ncc3c2)CCCN1` (stereo not drawn) registered a Papp A→B of 32 ×10⁻⁶ cm/s.
The same measure, in the same setting: under `CC(C)(C)CCC1(C(=O)c2ccc3[nH]ncc3c2)CCCN1` (stereo not drawn) stands 20 ×10⁻⁶ cm/s; under `CCCC1(C(=O)c2ccc3[nH]ccc3c2)CCCN1` (stereo not drawn), 41 ×10⁻⁶ cm/s; under `O=C(c1ccc2[nH]ccc2c1)C1(Cc2ccccc2)CCNC1` (stereo not drawn), 17 ×10⁻⁶ cm/s.
Still for that read-out and setting: under `CC(C)OCC1(C(=O)c2ccc(N)c(Cl)c2)CCCN1` (single isomer, unassigned; (+)) stands 30 ×10⁻⁶ cm/s.
